In patent US20240101552A1, “CARBONYL HETEROCYCLIC COMPOUND AND APPLICATION THEREOF” (SHANGHAI PHARMACEUTICALS HOLDING CO., LTD., priority 2020, published 2024):

Molecular target: LANCL2 (Homo sapiens (Human), UniProt Q9NS86)
Test: SPR (BIACORE S200) kinetic determination of LANCL2-small molecule interactions
Type: binding
Conditions: for Kd: immobilized LANCL2, 1:1 binding model, pH 6.5, 25° C.; for Rmax (RU): maximum binding force
Experimental: 1.1 Reagent Materials • Ligand: LANCL2 • Running buffer: 20 mM MES, 150 mM NaCl, 0.05% P20, pH 6.5, 1% DMSO
Injection conditions for small molecule compounds: a flow rate of 30 μL/min, a binding time of 60 s, a dissociation time of 300 s.
Running buffer: 20 mM MES, 150 mM NaCl, 0.05% P20, pH 6.5, 1% DMSO.
Sample chamber temperature: 25° C.; analysis temperature: 25° C.
Kinetic determination of LANCL2-small molecule interactions was performed. The kinetic parameters of small molecules BT-11 and L-1 to 60 (analytes) binding to LANCL2 (ligand) were determined using BIACORE S200. Data were generated in triplicate in a dose-dependent manner (5-8 titration points) and analyzed to determine binding models (Langmuir, conformational shifts, etc.), real-time association and dissociation constants, and equilibrium dissociation constants. SPR technology allows the validation of specific LANCL2-phytochemical interactions as well as an increased insight into the gold standard of binding mechanisms and rates. Experiments were performed on carboxymethyl polydextrose (CM5) sensor chips by amine-coupled covalent attachment of LANCL2. Data were analyzed with BIACORE S200T200 evaluation software (version 1), so as to determine affinity binding constants (KD) using a 1:1 binding model.
An optical technique for detecting molecular interactions, SPR, was used to measure the binding affinity between LANCL2 and a ligand thereof (compound to be tested). Purified recombinant LANCL2 protein was immobilized on a BIACORE sensor chip and small molecules were injected onto the protein surface using an equipment of microfluidic system. The change in total mass on the chip surface, corresponding to a small binding to the protein, was measured. […] The equilibrium dissociation constant (Kd) was often used to describe the affinity between a ligand and a protein, such as affinity degree of a ligand binding to a specific protein. Ligand-protein affinity was affected by non-covalent intermolecular interactions between two molecules, such as hydrogen bonding, electrostatic interactions, hydrophobic bonds and van der Waals forces. The steady-state affinity (Kd) for each interaction could be measured by plotting equilibrium binding levels against compound concentrations.

Chain of LANCL2 (Q9NS86 whole entry, species assumed): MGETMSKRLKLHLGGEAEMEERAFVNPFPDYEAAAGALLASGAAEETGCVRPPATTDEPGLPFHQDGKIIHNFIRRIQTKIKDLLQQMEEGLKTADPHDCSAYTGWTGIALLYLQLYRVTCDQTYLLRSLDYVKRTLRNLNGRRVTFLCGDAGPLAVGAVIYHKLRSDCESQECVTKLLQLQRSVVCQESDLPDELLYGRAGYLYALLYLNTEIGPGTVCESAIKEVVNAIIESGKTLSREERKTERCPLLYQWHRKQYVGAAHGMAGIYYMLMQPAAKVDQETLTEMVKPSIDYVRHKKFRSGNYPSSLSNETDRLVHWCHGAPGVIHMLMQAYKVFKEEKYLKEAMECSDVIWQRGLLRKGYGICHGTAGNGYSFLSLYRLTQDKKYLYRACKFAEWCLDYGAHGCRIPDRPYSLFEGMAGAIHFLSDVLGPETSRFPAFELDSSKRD

SMILES | Kd | Rmax (RU) | binding activity compared with positive reference compound BT-11
O=C(NC1C2CN(C(=O)c3cccc(-c4nc5ccccc5s4)c3)CC21)c1cccc(-c2nc3ccccc3[nH]2)n1 [Embodiment L-77, 6-(1H-benzo[d]imidazol-2-yl)-N-(3-(3-(benzo[d]thiazol-2-yl)benzoyl)-3-azabicyclo[3.1.0]hexane-6-yl)picolinamide] | 1.9 µM | 7.3 RU | better binding activities than the positive reference compound BT-11
O=C(c1cccc(-c2nc3ccccc3[nH]2)n1)N1CC2CN(C(=O)c3ccc4ccccc4n3)CC2C1 [Embodiment L-69, (5-(6-(1H-benzo[d]imidazol-2-yl)picolinoyl)hexahydropyrrolo[3,4-c]pyrrol-2(1H)-yl)(quinolin-2-yl)methanone] | 21.7 µM | 6.1 RU | –
O=C(Nc1cccc(-c2cn3ccccc3n2)c1)Nc1cccc(-c2cn3ccccc3n2)c1 [Embodiment L-119, 1,3-Bis(3-(imidazo[1,2-a]pyridin-2-yl)phenyl)urea] | 6.78 µM | 10.8 RU | –
O=C(c1cccc(-c2nc3ccccc3[nH]2)n1)N1CCC2(CCN(C(=O)c3nccc(Nc4ccccc4)n3)C2)C1 [Embodiment L-66, (7-(6-(1H-benzo[d]imidazol-2-yl)picolinoyl)-2,7-diazaspiro[4.4]non-2-yl)(4-(phenylamino)pyrimidin-2-yl)methanone] | 31.8 µM | 7.2 RU | –
O=C(NC1C2CN(C(=O)c3cccc(-c4nc5ccccc5[nH]4)n3)CC21)c1ccnc(N2CCOCC2)n1 [Embodiment L-14, N-(3-(6-(1H-benzo[d]imidazol-2-yl)picolinoyl)-3-azabicyclo[3.1.0]hexan-6-yl)-2-morpholinopyrimidine-4-carboxamide] | 21.1 µM | 7.1 RU | –
NC(=O)c1sccc1NC(=O)c1ccc(C(=O)N2CCN(C(=O)c3cccc(-c4nc5ccccc5[nH]4)n3)CC2)cc1 [Embodiment L-115, 3-(4-(4-(6-(1H-benzo[d]imidazol-2-yl)picolinoyl)piperazine-1-carbonyl)benzamido)thiophene-2-carboxamide] | 17.7 µM | 20.8 RU | –
O=C(c1cccc(-c2nc3ccccc3[nH]2)n1)N1CCC(c2nc3ccccc3[nH]2)CC1 [Embodiment L-57, (4-(1H-benzo[d]imidazol-2-yl)piperidin-1-yl)(6-(1H-benzo[d]imidazol-2-yl)pyridin-2-yl)methanone] | 8.02 µM | 8 RU | –
O=C(N[C@H]1[C@@H]2CN(C(=O)c3sccc3-n3cccc3)C[C@@H]21)c1cccc(-c2cn3ccccc3n2)c1 [Embodiment L-104, N-((1R,5S,6s)-3-(3-(1H-pyrrol-1-yl)thiophene-2-carbonyl)-3-azabicyclo[3.1.0]hexan-6-yl)-3-(imidazo[1,2-a]pyridin-2-yl)benzamide] | 12.5 µM | 9.7 RU | –
O=C(c1ccc(-c2nc3ccccc3[nH]2)nc1)N1CCC2(CCN(C(=O)c3cccc(-c4nc5ccccc5[nH]4)n3)C2)C1 [Embodiment L-60, (7-(6-(1H-benzo[d]imidazol-2-yl)nicotinoyl)-2,7-diazaspiro[4.4]nonan-2-yl)(6-(1H-benzo[d]imidazol-2-yl)pyridin-2-yl)methanone] | 27.4 µM | 3.6 RU | –
O=C(NC1CCN(C(=O)c2cccc(-c3cn4ccccc4n3)c2)CC1)c1cccc(-c2cn3ccccc3n2)c1 [Embodiment L-88, 3-(imidazo[1,2-a]pyridin-2-yl)-N-(1-(3-(imidazo[1,2-a]pyridin-2-yl)benzoyl)piperidin-4-yl)benzamide] | 16.4 µM | 9.7 RU | –
O=C(c1ccc(F)c(Cl)c1)N1CC2CN(C(=O)c3cccc(-c4nc5ccccc5[nH]4)n3)CC2C1 [Embodiment L-124, (5-(6-(1Hbenzo[d]imidazol-2-yl)picolinoyl)hexahydropyrrolo[3,4-c]pyrrol-2(1H)-yl)(3-chloro-4-fluorophenyl)methanone] | 8.79 µM | 4.8 RU | –
Cc1ccc(C(=O)N2CCC3(CCN(C(=O)c4cccc(-c5cn6ccccc6n5)c4)CC3)CC2)cc1NC1=CC(=O)c2ccccc2C1=O [Embodiment L-95, 2-((5-(9-(3-(imidazo[1,2-a]pyridin-2-yl)benzoyl)-3,9-diazaspiro[5.5]undecane-3-carbonyl)-2-methylphenyl)amino)naphthalene-1,4-dione] | 2.09 µM | 5.2 RU | better binding activities than the positive reference compound BT-11
Cc1ccncc1C(=O)N1CC2CN(C(=O)c3cccc(-c4nc5ccccc5[nH]4)n3)CC2C1 [Embodiment L-123, (5-(6-(1Hbenzo[d]imidazol-2-yl)picolinoyl)hexahydropyrrolo[3,4-c]pyrrol-2(1H)-yl)(4-methylpyridin-3-yl)methanone] | 18.3 µM | 3.9 RU | –
O=C(NC1C2CN(C(=O)c3cccc(-c4nc5ccccc5[nH]4)n3)CC21)c1ccnc(Nc2ccccc2)n1 [Embodiment L-23, N-(3-(6-(1H-benzo[d]imidazol-2-yl)picolinoyl)-3-azabicyclo[3.1.0]hexan-6-yl)-2-(phenylamino)pyrimidine-4-carboxamide] | 10.3 µM | 7.5 RU | –
O=C(c1cccc(-c2nc3ccccc3[nH]2)n1)N1CC2CN(C(=O)c3ccnc(Nc4ccc(F)cc4)n3)CC2C1 [Embodiment L-82] | 42.3 µM | 9.4 RU | –
O=C(N[C@H]1[C@@H]2CN(C(=O)c3cccc(Nc4ccccc4)n3)C[C@@H]21)c1cccc(Nc2ccccc2)n1 [Embodiment L-101] | 23.3 µM | 5.5 RU | –
O=C(Nc1ccccc1NC(=O)c1ccnc(N2CCOCC2)n1)c1ccnc(N2CCOCC2)n1 [Embodiment L-13, N,N′-(1,2-phenylene)bis(2-morpholinopyrimidine-4-carboxamide)] | 38.3 µM | 1.5 RU | –
Cc1cn(-c2cccc(C(=O)N3CCC4(CCN(C(=O)c5cccc(-c6cn7ccccc7n6)c5)CC4)CC3)c2)cn1 [Embodiment L-92, (9-(3-(imidazo[1,2-a]pyridin-2-yl)benzoyl)-3,9-diazaspiro[5.5]undecan-3-yl)(3-(4-methyl-1H-imidazol-1-yl)phenyl)methanone] | 58.8 µM | 11 RU | –

Second part, led by results:

Kd | Rmax (RU) | SMILES | binding activity compared with positive reference compound BT-11
40.5 µM | 3.3 RU | O=C(c1cccc(-c2nc3ccccc3[nH]2)n1)N1CC2CN(C(=O)C3CCC(c4ccc(Cl)cc4)CC3)CC2C1 [Embodiment L-126, (5-(6-(1Hbenzo[d]imidazol-2-yl)picolinoyl)hexahydropyrrolo[3,4-c]pyrrol-2(1H)-yl)(4-(4-chlorophenyl)cyclohexyl)methanone] | –
29.3 µM | 5.7 RU | O=C(c1cccc(-c2nc3ccccc3[nH]2)n1)N1CCC2(CC1)CCN(C(=O)c1ccnc(Nc3ccccc3)n1)C2 [Embodiment L-62, (8-(6-(1H-benzo[d]imidazol-2-yl)picolinoyl)-2,8-diazaspiro[4.5]dec-2-yl)(2-(phenylamino)pyrimidin-4-yl)methanone] | –
48.4 µM | 13.7 RU | O=C(c1cnc2ccccc2c1)N1CCN(C(=O)c2cccc(-c3nc4ccccc4[nH]3)n2)CC1 [Embodiment L-108, (4-(6-(1H-benzo[d]imidazol-2-yl)picolinoyl)piperazin-1-yl)(quinolin-3-yl)methanone] | –
9.88 µM | 7.3 RU | O=C(NC1CCN(C(=O)c2cccc(-c3nc4ccccc4[nH]3)n2)CC1)c1ccnc(Nc2ccccn2)n1 [Embodiment L-21] | –
40.6 µM | 5.9 RU | Cc1[nH]c2ccccc2c1C(=O)N1CC2CN(C(=O)c3cccc(-c4nc5ccccc5[nH]4)n3)CC2C1 [Embodiment L-71, (5-(6-(1H-benzo[d]imidazol-2-yl)picolinoyl)hexahydropyrrolo[3,4-c]pyrrol-2(1H)-yl)(2-methyl-1H-indol-3-yl)methanone] | –
14.9 µM | 3.6 RU | O=C(c1cccc(-c2nc3ccccc3[nH]2)n1)N1CCC2(CC1)CCN(C(=O)c1cccc(-c3nc4ccccc4[nH]3)n1)C2 [Embodiment L-59, (2,8-diaza[4.5]decane-2,8-diyl)bis(6-(1H-benzo[d]imidazol-2-yl)pyridin-2-yl)methanone] | –
81.5 µM | 14.4 RU | O=C(c1ccnc(Nc2ccccc2)n1)N1CCC2(CC1)CCN(C(=O)c1ccnc(Nc3ccccc3)n1)CC2 [Embodiment L-78, (3,9-diazaspiro[5.5]undecane-3,9-diyl)bis((2-(phenylamino)pyrimidin-4-yl)methanone)] | –
48.8 µM | 6.1 RU | O=C(c1cccc(-c2nc3ccccc3[nH]2)n1)N1CCC2(CCCN(C(=O)c3ccnc(Nc4ccccc4)n3)C2)CC1 [Embodiment L-64, (9-(6-(1H-benzo[d]imidazol-2-yl)picolinoyl)-2,9-diazaspiro[5.5]undecan-2-yl)(2-(phenylamino)pyrimidin-4-yl)methanone] | –
